# In PMC5513743 (Journal of medical virology, 2017):
# Read-outs that look alike come from different tables or passages of the source.
# Assays:
# [1] = system: HCV replicon cell line AVA5 (sub-genomic (CON1), genotype 1b); assay: microbe, parasite or virus in culture; settings: Hepatitis C virus, GETYPE1B, Ava5, read-out: EC50 (μM) (individual agent)
# patient derived HCV = assay: microbe, parasite or virus in culture; assay type: cell-based, hepatitis C virus; settings: for IC50: Hepatitis C virus, in Homo sapiens
# [2] = system: HCV replicon H/FL-Neo (genotype 1a (H77), full length construct); settings: HCV genotype 1A replicon
# [3] = system: HCV replicon cell line AVA5 (sub-genomic (CON1), genotype 1b)
# replicon cell line AVA5 = settings: Table 2; SB 9200 monotherapy
# [4] = system: fused THP-1/Huh7 derivative cells; settings: capture fusion assay, data not shown
# HCV = settings: SAD and MAD seven-day Phase I study, chronic HCV patients; ref Thompson AJ, 2015; cited from earlier work
# in vitro [5] = assay: in vitro
# in vitro [6] = settings: human
structure (smiles),measurement,setting,value
NC(=O)c1ncn([C@@H]2O[C@H](CO)[C@@H](O)[C@H]2O)n1 [Ribavirin],EC50,[1],> 30 µM
CO[C@@H]1[C@H](OP(=O)(OC[C@H]2O[C@@H](n3cnc4c(N)ncnc43)C[C@@H]2O)SCOC(=O)OC(C)C)[C@@H](CO)O[C@H]1n1ccc(=O)[nH]c1=O (stereo partly shown) [SB 9200],inhibition of HCV replication,"patient derived HCV; Genotypes 1,2,3,4, and 6 patient derived HCV",inhibited replication of all the genotypes tested in a dose-dependent manner
same,IC50,"patient derived HCV; G1 strains, patient derived HCV",0.22 ± 0.076 µM
same,IC50,"patient derived HCV; G3 isolates, patient derived HCV",0.035 ± 0.013 µM
same,difference in activity (IC50) against pre- and post treatment quasi-species,"patient derived HCV; g3 patient who failed SOF/DAC/RBV, NS5A RAS S62L and Y93H enriched",No significant difference
same,antiviral activity (fold change in HCV RNA from non-treated controls),"patient derived HCV; single dose 0.1μM, G3 SVR and NR samples after DAA treatment",demonstrated antiviral activity
same,S.I. (CC50/EC50),[2],> 45
same,S.I. (CC50/EC50),[3]; HCV genotype 1B replicon,>100
same,S.I. (CC50/EC50),"[3]; Table 2, SB 9200 monotherapy",>100
same,CC50,replicon cell line AVA5,> 100 µM
same,Cell viability,[4],not affected
same,safety and tolerability,HCV,"safe, well tolerated"
same,CC50,in vitro [5],> 100 µM
same,CC50,in vitro [6],> 100 µM
"C/C=C/C[C@@H](C)[C@@H](O)[C@H]1C(=O)N[C@@H](CC)C(=O)N(C)[C@H](C)C(=O)N(CC)[C@@H](C(C)C)C(=O)N[C@@H](C(C)C)C(=O)N(C)[C@@H](CC(C)C)C(=O)N[C@@H](C)C(=O)N[C@H](C)C(=O)N(C)[C@@H](CC(C)C)C(=O)N(C)[C@@H](CC(C)C)C(=O)N(C)[C@@H](C(C)C)C(=O)N1C [alisporivir, reference compound]",IC50,patient derived HCV; G1 patient derived samples,0.099 µM
same,IC50,patient derived HCV; G3 patient derived samples,0.036 µM
